{"source": "patent US20250049963A1", "about": "“GLYCOSYLATED DENDRIMERS FOR TARGETED INTRACELLULAR DELIVERY” (The Johns Hopkins University, priority 2021, published 2025)", "origin": "cited, not measured here", "biological_target": "T1, GLUT2 (Homo sapiens, UniProt P11168)", "T1 sequence (P11168 1-524)": "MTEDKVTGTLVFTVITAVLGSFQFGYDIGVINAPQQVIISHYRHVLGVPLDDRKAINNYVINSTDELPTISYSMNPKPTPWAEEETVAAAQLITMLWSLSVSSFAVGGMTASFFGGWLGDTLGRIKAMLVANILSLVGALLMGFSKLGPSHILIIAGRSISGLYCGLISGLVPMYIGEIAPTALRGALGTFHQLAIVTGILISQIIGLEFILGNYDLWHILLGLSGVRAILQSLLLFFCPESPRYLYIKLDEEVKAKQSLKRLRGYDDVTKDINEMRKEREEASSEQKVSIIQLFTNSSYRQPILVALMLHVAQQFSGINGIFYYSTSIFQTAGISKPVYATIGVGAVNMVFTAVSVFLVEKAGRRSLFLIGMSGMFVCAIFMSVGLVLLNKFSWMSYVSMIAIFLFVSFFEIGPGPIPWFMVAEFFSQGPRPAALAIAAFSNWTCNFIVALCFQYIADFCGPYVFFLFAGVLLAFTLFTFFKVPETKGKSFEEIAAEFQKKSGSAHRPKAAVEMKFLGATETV", "conditions": "cited from earlier work"}
{"smiles": "NC1C(O)[C@H](O)C(CO)O[C@@H]1O", "note": "(stereo partly shown) [GlcN, glucosamine]", "values": [{"measurement": "affinity of GLUT2 for GlcN relative to glucose", "value": "~20", "unit": "fold"}]}
